Patent US20110160166A1, “Therapeutic composition for the treatment and prevention of athlete's foot and fungal infections of the nail and surrounding tissues” (priority 2009, published 2011)

Assays:
[1] = tested on: nail fungus; conditions: after 48 weeks of daily topical treatment; cited from earlier work
[2] = Description: Salicylic acid USP is well known as a strongly antimicrobial pharmaceutical ingredient. It is currently approved by US FDA as an Over-the-Counter active ingredient in anti-dandruff and anti-acne medicaments. Salicylic acid is a skin and eye irritant and a keratolytic, and must be used at low concentrations when applied to human tissue.
[3] = tested on: toenail infections; conditions: cited from earlier work
[4] = tested on: fingernail infections; conditions: terbinafine; 6 weeks of treatment, assessment at 18 weeks after completion of therapy; cited from earlier work
[5] = target: Cytochrome P450 2D6 isozyme (Homo sapiens, UniProt P10635); conditions: cited from earlier work
Sequence of Cytochrome P450 2D6 isozyme (P10635 whole entry): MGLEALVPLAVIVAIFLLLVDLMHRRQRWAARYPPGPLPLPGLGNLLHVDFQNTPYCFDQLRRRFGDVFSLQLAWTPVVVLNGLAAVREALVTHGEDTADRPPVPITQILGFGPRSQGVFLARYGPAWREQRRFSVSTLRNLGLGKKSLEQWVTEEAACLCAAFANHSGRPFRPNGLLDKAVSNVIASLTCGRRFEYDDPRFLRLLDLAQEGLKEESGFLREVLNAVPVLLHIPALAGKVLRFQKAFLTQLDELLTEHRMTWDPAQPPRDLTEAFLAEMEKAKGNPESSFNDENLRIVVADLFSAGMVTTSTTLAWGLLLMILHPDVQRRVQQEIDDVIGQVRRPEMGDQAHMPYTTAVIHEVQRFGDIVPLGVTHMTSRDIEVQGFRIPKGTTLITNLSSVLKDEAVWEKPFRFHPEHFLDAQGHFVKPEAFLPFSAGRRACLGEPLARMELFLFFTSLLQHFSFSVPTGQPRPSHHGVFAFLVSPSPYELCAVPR

Cc1cc(C2CCCCC2)n(O)c(=O)c1 [Ciclopirox 8%, Ciclopirox]
patients who achieved clear or almost clear nails [1]: < 12%

O=C(O)c1ccccc1O [Salicylic acid]
keratolytic and irritant effects ([2]; formulated into an anhydrous base, applied to human nail and surrounding tissues): dramatically reduced or eliminated
irritation experienced by the subject ([2]; high concentrations in anhydrous base): no irritation

CN(C/C=C/C#CC(C)(C)C)Cc1cccc2ccccc12 [terbinafine]
cure rates for toenail infections ([3]; terbinafine 250 mg oral, 12 weeks treatment, 36 weeks follow-up after completion of therapy): 38%-59%
clinical relapse rate ([3]; terbinafine, toenail infections): ~15%
cure rates for fingernail infections [4]: 59-79%
inhibition of Cytochrome P450 2D6 isozyme [5]: inhibitor
